Here are results for two compounds from patent US20260183429A1, “COMPOSITIONS FOR MODULATING ACETYLATED TUBULIN LEVELS AND METHODS THEREOF” (THE TRUSTEES OF COLUMBIA UNIVERSITY IN THE CITY OF NEW YORK, priority 2023, published 2026).

Marks after values point to notes of the source that are not given here.

Holding throughout (type): cell-based, mouse
The test system of experiment [1] is WT MEFs. The experiment can be described thus: MT plus end dynamics, GFP-tubulin live imaging, WT MEFs. Conditions: WT + TSA. The protocol:
(§1) Fibroblasts were transfected with pMSCV-puro-tagGFP-C4 α-tubulin plasmid to generate a green fluorescent protein (GFP)-tubulin stably expressing cell line. Live imaging of MT dynamics in transfected cells was performed at 37° C. and 5% CO2 for 5 min (5 s/f) with a 100×
(§2) PlanApo objective (numerical aperture 1.45) and an iXon X3 CCD camera (Andor, Belfast, United Kingdom) on a Nikon Eclipse Ti microscope controlled by Nikon's NIS-Elements software (Nikon, Tokyo, Japan). Movies were analyzed by ImageJ using a manual tracking plug-in. Dynamicity is calculated by dividing the sum of growth and shrinkage distances by MT lifetime.

Experiment [2] concerns MFN2 KO MEFs. The experiment is described as follows: MT plus end dynamics, GFP-tubulin live imaging, MFN2 KO MEFs. The protocol:
as §1, §2

Experiment [3] concerns Iqgap1 KO MEFs. The experiment can be described thus: MT plus end dynamics, GFP-tubulin live imaging, Iqgap1 KO MEFs. The following applies: Iqgap1 KO + TSA. As for the experimental part: as §1, §2
In experiment [4] the test system is acetylated tubulin in MFN2 KO MEFs. The experiment is described as follows: Acetylated tubulin levels by immunoblot and immunofluorescence in MFN2 KO MEFs. The following applies: MFN2 KO cells; 10 nM TSA, 6 h and 12 h (FIGS. 2A-2D). As for the experimental part:
(§3) Cells were fixed in 4% PFA for 15 min and permeabilized with 0.1% Triton X-100 for 5 min at R.T. For the MT cytoskeleton, cells were fixed in ice cold MetOH for 10′ prior to rehydration in PBS buffer. Cells were then washed in PBS, blocked in 2% FBS and 2% BSA in PBS for 1 h, stained with primary antibodies overnight at 4° C. followed by secondary antibodies for 1 h. Mounted samples were observed using a Zeiss LSM 800 confocal microscope using a 63× objective (Plan-Apochromat, NA 1.4). Z stack (0.5 um) images were acquired. To calculate the Mitotic Index as percentage, the number of cells in mitosis were divided by the total number of cells multiplied by 100. […] ROIs were selected in both channels to calculate mean fluorescence and integrated density prior to calculating corrected total fluorescence intensity (CTCF=Integrated Density−(Area of selected cell*Mean fluorescence of background readings). For measuring MT associated MB11 intensity, an ROI was selected along individual tyrosinated MTs using ImageJ and GTP tubulin (hMB11) pixel intensity was calculated along the tyrosinated tubulin signal and corrected by subtracting out background signal fluorescence intensity.
(§4) Cells were lysed in Laemmli sample buffer and boiled at 96° C. for 5 min. […] Image acquisition was performed with an Odyssey imaging system (LI-COR Biosciences, NE) and analyzed with Odyssey software.

Experiment [5] relates to MFN2 KO MEFs. The experiment is described as follows: Mitochondrial morphology, motility, distribution and association with MTs in MFN2 KO MEFs. The following applies: MFN2 KO cells. The protocol:
For immunofluorescence staining of the MT cytoskeleton, cells were fixed in ice cold MetOH for 10′ prior to rehydration in PBS buffer. For all other staining, cells were fixed in 4% PFA for 15 min and permeabilized with 0.1% Triton X-100 for 5 min at R.T. Cells were then washed in PBS, blocked in 2% FBS and 2% BSA in PBS for 1 h, stained with primary antibodies overnight at 4° C. followed by secondary antibodies for 1 h. Mounted samples were observed using a Zeiss LSM 800 confocal microscope equipped with Airyscan module, using a 63× objective (Plan-Apochromat, NA 1.4). Z stack (0.2 um) images were acquired and processed using Zen Blue 2.1 software prior to analysis by ImageJ software. For 3D reconstruction, mitochondrial networks in individual cells were quantified by analyzing the network volume using Imaris software (Bitplane, Concord, MA). For line scan analysis, a line was drawn, and intensity was measured represented as gray values. The amount of fluorescence of the colocalizing pixels in each channel (Mander's coefficient) was calculated using ImageJ. The file was opened, and channels were split. Each select file was changed to 8-bit greyscale and max projection images was generated. Colocalization was assessed by Plugin co-localization finder. To calculate number of ATAT1 foci, each image was converted into an 8-bit greyscale image and ATAT1 signal thresholded until the foci appeared isolated from the background in a binary image. Both channels were then merged into one and the number of foci localizing in the merged stack quantified. To calculate ATAT1 localization with MFN2 on mitochondria, numbers of ATAT1 and MFN2 foci were quantified on each channel individually. Both channels were then merged into one and number of foci in the merged stack analyzed and quantified on mitochondria.
(§5) Mitochondria were labeled using MitoTracker™ Red CMROX according to manufacturer protocol (ThermoFisher Scientific) and detected by epifluorescence microscope equipped with 60× objective lens (Olympus IX81) and a monochrome CCD camera (Sensicam QE, Cooke Corporation). Aspect ratio (length/width) were measured in unedited image files by using Image J/FIJI. Brightness and contrast of the images were adjusted to optimize visualization of the mitochondrial segments and to reduce background noise. After selecting an individual cell, the Analyze Particles function (pixel size 10-infinity; circularity 0.00-1.00) was used to count the number of noncontiguous, discrete particles, and describe their shape. For mitochondrial distribution and displacement velocity mitochondria were live imaged for 3 min at 2 sec/frame at 37° C. A customized Mitoplot software was used for analyzing mitochondrial distribution by defining the center of cell and drawing a line towards periphery. Manual tracking plug-in in ImageJ/FIJI was used to analyze mitochondrial displacement velocity by selecting individual mitochondria.

Experiment [6] has as its system MFN2 KO MEFs. The experiment can be described thus: Mitochondria fusion by mitoDendra photoconversion in MFN2 KO MEFs. Conditions: MFN2 KO cells; TSA 10 nM, 6 h. An excerpt: Dendra2 photoconversion and imaging utilized the protocol from Evrogen. Images were acquired with an Olympus spinning disk microscope EC-Plan-Neofluar 40X/1.3 oil. Z-stack acquisitions over-sampled each optical slice twice, and the Zen 2009 image analysis software was used for maximum z-projections. The 488 nm laser line and the 561 nm laser excited Dendra2 in the unconverted state and photo-converted state, respectively. To photo-switch Dendra2, a region was illuminated with the 405 nm line (4% laser power) for 90 bleaching iterations. The corrected total fluorescence intensity of both the channels was calculated using ImageJ and colocalization percentage was calculated.

Experiment [7] has as its system MFN2 KO MEFs. The experiment can be described thus: Lipidomics of lipid classes in MFN2 KO MEFs. The following applies: MFN2 KO cells; TSA 10 nM.
The test system of experiment [8] is MFN2 KO MEFs. The experiment is described as follows: MAM-dependent phospholipid synthesis, 3H-Ser incorporation into PtdSer and PtdEtn. The following applies: TSA 10 nM, 6 h, after 2 h and 4 h. As for the experimental part:
Both mitochondria and ER play key roles in the synthesis of phosphatidylserine (PtdSer), phosphatidylethanolamine (PtdEtn), and phosphatidylcholine (PtdCho). PtdSer is synthesized in the MAM; it then translocates to mitochondria, where it is converted to PtdEtn; PtdEtn then translocates back to the MAM, to generate PtdCho. To test the effect of MFN2 on phospholipid synthesis mediated by MAM, WT and MFN2 KO MEF cells were incubated for 2 h with serum-free medium to ensure removal of exogenous lipids. The medium was then replaced with MEM containing […] of 3H-serine for 2, 4 and 6 h. The cells were washed and collected in DPBS, pelleted at 2500×g for 5 min at 4° C., and resuspended in 0.5 ml water, removing a small aliquot for protein quantification. Lipid extraction was done by the Bligh and Dyer method. Briefly, three volumes of chloroform/methanol 2:1 were added to the samples and vortexed. […] The spots corresponding to the relevant phospholipids (identified using co-migrating standards) were scraped and counted in a scintillation counter (Packard Tri-Carb 2900TR). […] Therefore, to directly test the effect of MFN2 mutations on phospholipid synthesis mediated by MAM, control and MFN2 KO fibroblasts were incubated in medium containing 3H-serine and measured the incorporation of the label into newly synthesized 3H-PtdSer and 3H-PtdEtn after 2 and 4 h.

In experiment [9] the test system is acetylated tubulin in Iqgap1 KO MEFs. The experiment is described as follows: Acetylated tubulin levels in Iqgap1 KO MEFs. Conditions: 10 nM TSA, 6 h or 12 h. As for the experimental part: as §3, §4
For experiment [10], the system named is Iqgap1 KO MEFs. The experiment can be described thus: Mitochondria dynamics in Iqgap1 KO MEFs. The following applies: 10 nM TSA, 6 h, compared with TTL silencing. The protocol:
as §5

Regarding `CC(/C=C/C(=O)NO)=C\[C@@H](C)C(=O)c1ccc(N(C)C)cc1` [TSA, trichostatin A], in experiment [1] (Table 3), the “% Growth” value is recorded as 20.04 ± 1.28^c,x %, the “% Pause” value is 63.5 ± 0.64^c,x %, the “% Shrinkage” value is recorded as 18.25 ± 1.37^c,x % and the Catastrophe frequency came to 0.05 ± 0.004 s⁻¹. Besides, in experiment [1] (Table 3), the Growth rate came out at 0.04 ± 0.007 μm/s, the MT lifetime stood at 56.5 ± 3.66 s, the Rescue freq. is 0.07 ± 0.006 s⁻¹ and the Shrinkage rate is 0.07 ± 0.008 μm/s. Further, in experiment [1] (Table 4 (Iqgap1 series)), the “% Growth” value is 23.75 ± 0.85^b,x %, the “% Pause” value was 50 ± 2.48^b,x %, the “% Shrinkage” value is listed as 27.25 ± 3.19% and the Catastrophe frequency was 0.06 ± 0.003 s⁻¹. In experiment [1] (Table 4 (Iqgap1 series)), the Growth rate is reported as 0.04 ± 0.004 μm/s, the MT dynamicity is 3.32 ± 0.24^a,x μm/min, the MT lifetime came to 49.5 ± 2.32 s and the Rescue freq. was 0.07 ± 0.007 s⁻¹. The Shrinkage rate in experiment [1] (Table 4 (Iqgap1 series)) is reported as 0.03 ± 0.004 μm/s. Further, in experiment [2] (MFN2 KO + TSA), the “% Growth” value is listed as 22.4 ± 0.90^c,y %, the “% Pause” value was 62.13 ± 1.68^c,y %, the “% Shrinkage” value is reported as 16.05 ± 1.42^c,y % and the Catastrophe frequency was determined as 0.05 ± 0.006 s⁻¹. In experiment [2] (MFN2 KO + TSA), the Growth rate is recorded as 0.08 ± 0.005^a,y μm/s, the MT dynamicity is listed as 4.858 ± 0.46^c,y μm/min, the MT lifetime is given as 60.25 ± 1.43 ^ s and the Rescue freq. worked out at 0.09 ± 0.004 s⁻¹. For the same compound, the Shrinkage rate in [2] (MFN2 KO + TSA) was 0.08 ± 0.005^a,y μm/s. The MT dynamics result in experiment [2] (MFN2 KO cells + TSA (Table 3)) is listed as “normalized”. Also, in experiment [3], the “% Growth” value is given as 25.25 ± 1.54^b,y %, the “% Pause” value is 51.75 ± 1.10^b,y %, the “% Shrinkage” value is recorded as 22.5 ± 0.86^b,y % and the Catastrophe frequency is 0.06 ± 0.004 s⁻¹. Further, in experiment [3], the Growth rate was 0.095 ± 0.006^a,y μm/s, the MT dynamicity is listed as 3.77 ± 0.33^b,y μm/min, the MT lifetime worked out at 51.25 ± 1.79 s and the Rescue freq. is 0.08 ± 0.006 s⁻¹. Besides, in experiment [3], the Shrinkage rate is given as 0.09 ± 0.004 μm/s. Further, the acetylated tubulin levels result in experiment [4] is listed as “normalized”. The “co-localization of mitochondria with MTs” value in experiment [5] (10 nM TSA, 6 h (FIGS. 2E, 2F)) was “restored”. In [5] (TSA 10 nM, 6 h), the “central and peripheral mitochondrial displacement velocity” value was “normalized”; the mitochondria distribution entry is “normalized”; the mitochondria elongated morphology entry is reported as “partially reestablished”. Also, the mitochondria fusion entry in experiment [6] is recorded as “completely failed to recover”. In addition, the “changes in sphingomyelin, cholesterol, cholesteryl esters and ceramide levels” value in experiment [7] is “rescued”. In addition, in experiment [8], the “MAM-dependent phospholipid synthesis (3H-Ser into 3H-PtdSer and 3H-PtdEtn)” value was “failed to normalize”. In addition, the acetylated tubulin levels entry in experiment [9] is “restoration of acetylated tubulin levels”. The mitochondria dynamics entry in experiment [10] was “rescue of mitochondria dynamics”.

Turning to `O=C(CCCCCCC(=O)Nc1ccc([C@H]2O[C@@H](CSc3nc(-c4ccccc4)c(-c4ccccc4)o3)C[C@@H](c3ccc(CO)cc3)O2)cc1)NO` [tubacin, Tubacin], the “mitochondrial displacement velocity, distribution, aspect ratio and fusion compared with TSA” value in experiment [5] (tubacin 20 μM, 6 h (FIGS. 3F-3I)) is “Identical results”.
